Measurements reported in ChEMBL document CHEMBL1201862, “PubChem BioAssay data set” (2004).
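1) Cells in 96-well plates. 2) Compound, 48 h, 5 concentrations. 3) Linear interpolation between surrounding doses. 4) Unreached endpoint = highest concentration. GI50: concentration for 50% inhibition of growth.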 The source made the active and inactive calls. No stated cut-off is given here; in the data, active = GI50 up to about 1.1 µM and inactive = higher.

Legend:
Assay in all cases: NCI anticancer screen, dose series, 48 h
[1] = tested on: 786-0
[2] = tested on: A498
[3] = tested on: A549
[4] = tested on: ACHN
[5] = tested on: BT-549
[6] = tested on: CAKI-1
[7] = tested on: CCRF-CEM
[8] = tested on: COLO 205
[9] = tested on: DU-145
[10] = tested on: EKVX
[11] = tested on: HCT-116
[12] = tested on: HCT-15
[13] = tested on: HL-60
[14] = tested on: HOP-62
[15] = tested on: HOP-92
[16] = tested on: HT-29
[17] = tested on: Hs-578T
[18] = tested on: IGROV-1
[19] = tested on: K562
[20] = tested on: KM12
[21] = tested on: LOX IMVI
[22] = tested on: M14
[23] = tested on: MDA-MB-231
[24] = tested on: MDA-MB-435
[25] = tested on: MDA-N
[26] = tested on: MOLT-4
[27] = tested on: Malme-3M
[28] = tested on: NCI-H226
[29] = tested on: NCI-H23
[30] = tested on: NCI-H460
[31] = tested on: NCI-H522
[32] = tested on: NCI/ADR-RES
[33] = tested on: OVCAR-3
[34] = tested on: OVCAR-4
[35] = tested on: OVCAR-5
[36] = tested on: OVCAR-8
[37] = tested on: PC-3
[38] = tested on: RPMI-8226
[39] = tested on: RXF 393
[40] = tested on: SF-268
[41] = tested on: SF-295
[42] = tested on: SF-539
[43] = tested on: SK-MEL-28
[44] = tested on: SK-MEL-2
[45] = tested on: SK-MEL-5
[46] = tested on: SK-OV-3
[47] = tested on: SN12C
[48] = tested on: SNB-19
[49] = tested on: SR
[50] = tested on: SW-620
[51] = tested on: T47D
[52] = tested on: TK-10
[53] = tested on: U-251
[54] = tested on: UACC-257
[55] = tested on: UACC-62
[56] = tested on: UO-31
[57] = tested on: HCC 2998
[58] = tested on: MCF7
[59] = tested on: SNB-75

C[C@@H]1[C@@H](c2ccccc2)O[B-](c2ccccc2)(c2ccccc2)N1C
GI50 [1]: 65.8 µM (inactive)
GI50 [2]: 34.8 µM (inactive)
GI50 [3]: 58.6 µM (inactive)
GI50 [4]: 33.1 µM (inactive)
GI50 [5]: 30.7 µM (inactive)
GI50 [6]: 27.9 µM (inactive)
GI50 [7]: 12.9 µM (inactive)
GI50 [8]: 22.3 µM (inactive)
GI50 [9]: 63.1 µM (inactive)
GI50 [10]: 97.7 µM (inactive)
GI50 [11]: 32.9 µM (inactive)
GI50 [12]: 40.2 µM
GI50 [13]: 15.3 µM (inactive)
GI50 [14]: > 100 µM (inactive)
GI50 [15]: 27.8 µM (inactive)
GI50 [16]: 85.9 µM (inactive)
GI50 [17]: 33.4 µM (inactive)
GI50 [18]: 69 µM (inactive)
GI50 [19]: 36.4 µM (inactive)
GI50 [20]: 52.1 µM (inactive)
GI50 [21]: 61.9 µM (inactive)
GI50 [22]: 28.4 µM (inactive)
GI50 [23]: 40.7 µM (inactive)
GI50 [24]: 35.4 µM (inactive)
GI50 [25]: 52 µM (inactive)
GI50 [26]: 43.7 µM (inactive)
GI50 [27]: 29.5 µM (inactive)
GI50 [28]: 36.5 µM (inactive)
GI50 [29]: 35.6 µM (inactive)
GI50 [30]: 45.2 µM (inactive)
GI50 [31]: 34.5 µM (inactive)
GI50 [32]: 54.5 µM (inactive)
GI50 [33]: 35.9 µM (inactive)
GI50 [34]: 72.1 µM (inactive)
GI50 [35]: 74.3 µM (inactive)
GI50 [36]: 72.3 µM (inactive)
GI50 [37]: 17.5 µM (inactive)
GI50 [38]: 32 µM (inactive)
GI50 [39]: 37.5 µM (inactive)
GI50 [40]: 64 µM (inactive)
GI50 [41]: 62.4 µM (inactive)
GI50 [42]: 27.3 µM (inactive)
GI50 [43]: 52.1 µM (inactive)
GI50 [44]: 49.5 µM (inactive)
GI50 [45]: 30 µM (inactive)
GI50 [46]: 55.3 µM (inactive)
GI50 [47]: 61.5 µM (inactive)
GI50 [48]: > 100 µM (inactive)
GI50 [49]: 21.7 µM (inactive)
GI50 [50]: 50.8 µM (inactive)
GI50 [51]: 38.9 µM (inactive)
GI50 [52]: 32.8 µM (inactive)
GI50 [53]: > 100 µM (inactive)
GI50 [54]: 50.6 µM (inactive)
GI50 [55]: 41 µM (inactive)
GI50 [56]: 20.9 µM (inactive)

CCOc1cc2c(cc1O)C(N)C[C@@H]1[C@@H]2CC[C@]2(C)[C@@H](O)CC[C@@H]12 (stereo not given in full)
GI50 [1]: 40.3 µM (inactive)
GI50 [2]: 34.8 µM (inactive)
GI50 [4]: 34.8 µM (inactive)
GI50 [5]: 40.9 µM (inactive)
GI50 [6]: 32.9 µM (inactive)
GI50 [7]: 22.6 µM (inactive)
GI50 [8]: 52.7 µM (inactive)
GI50 [10]: 80.9 µM (inactive)
GI50 [57]: 36.7 µM (inactive)
GI50 [12]: 45.7 µM
GI50 [13]: 18.6 µM (inactive)
GI50 [14]: 46.7 µM (inactive)
GI50 [15]: 25.6 µM (inactive)
GI50 [16]: 42.7 µM (inactive)
GI50 [17]: 54.7 µM (inactive)
GI50 [18]: 52.6 µM (inactive)
GI50 [19]: 18.8 µM (inactive)
GI50 [20]: 43.7 µM (inactive)
GI50 [21]: 34.2 µM (inactive)
GI50 [22]: 26.9 µM (inactive)
GI50 [58]: 40.8 µM (inactive)
GI50 [23]: 83.9 µM (inactive)
GI50 [25]: 23.4 µM (inactive)
GI50 [26]: 33.3 µM (inactive)
GI50 [28]: 92.7 µM (inactive)
GI50 [29]: 49.5 µM (inactive)
GI50 [30]: 37.6 µM (inactive)
GI50 [31]: 33.5 µM (inactive)
GI50 [32]: > 100 µM (inactive)
GI50 [34]: 30.8 µM (inactive)
GI50 [35]: > 100 µM (inactive)
GI50 [36]: 83.2 µM (inactive)
GI50 [37]: 34.4 µM (inactive)
GI50 [39]: 56.5 µM (inactive)
GI50 [40]: 61.7 µM (inactive)
GI50 [41]: 32.7 µM (inactive)
GI50 [42]: > 10 µM (inactive)
GI50 [43]: 42.8 µM (inactive)
GI50 [44]: 41.1 µM (inactive)
GI50 [45]: 30.2 µM (inactive)
GI50 [48]: 46.7 µM (inactive)
GI50 [59]: 15 µM (inactive)
GI50 [49]: 15.2 µM (inactive)
GI50 [50]: 34 µM (inactive)
GI50 [51]: 84.1 µM (inactive)
GI50 [52]: 83 µM (inactive)
GI50 [53]: 37.9 µM (inactive)
GI50 [54]: 38.6 µM (inactive)
GI50 [56]: 36.9 µM (inactive)
